{
  "source": "paper PMC11840788",
  "about": "“3,3′-Diindolylmethane (DIM): A Molecular Scaffold for Inhibition of WWP1 and WWP2, Members of the NEDD4 Family HECT E3 Ligases” (ACS Omega, 2025)",
  "target": "WWP1 (Homo sapiens, UniProt Q9H0M0)",
  "sequence (Q9H0M0 546-922 limits assumed)": "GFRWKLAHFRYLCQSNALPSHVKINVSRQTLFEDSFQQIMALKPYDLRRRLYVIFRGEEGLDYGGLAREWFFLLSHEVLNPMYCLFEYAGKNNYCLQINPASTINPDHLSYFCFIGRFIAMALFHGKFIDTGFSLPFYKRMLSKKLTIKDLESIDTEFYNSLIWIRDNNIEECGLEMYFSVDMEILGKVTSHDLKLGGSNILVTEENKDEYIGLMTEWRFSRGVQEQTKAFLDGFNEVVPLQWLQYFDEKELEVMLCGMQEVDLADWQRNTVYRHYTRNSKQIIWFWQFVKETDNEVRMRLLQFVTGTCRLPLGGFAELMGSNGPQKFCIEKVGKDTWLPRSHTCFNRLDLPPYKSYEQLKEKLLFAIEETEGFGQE",
  "test": "STD NMR binding, WWP1",
  "details": "500 μM ligand, 20 μM protein",
  "experimental": "Given the similarities between WWP1 and WWP2 HECT domains, we speculated that the relatively low sensitivity of DSF may not be able to detect weak WWP2-I3C interactions and therefore opted to investigate further using STD NMR. STD NMR is a versatile ligand-based NMR approach, relying on selective saturation of the protein. This saturation is transferred to the ligand when and if the ligand binds, causing a reduction of the signal intensities. The STD intensities are calculated as the difference of the reference spectra (where selective saturation is off) minus the irradiated spectra, and they are proportional to the vicinity of the protein surface. […]\nAn Amicon centrifuge filter unit with a 10 kDa MW cutoff was used to exchange the protein in 25 mM d19-2,2-bis(hydroxymethyl)-2,2′,2″-nitrilotriethanol, 100 mM NaCl and 1.0 mM DTT buffer pH* 8.9 (uncorrected for the deuterium isotope effect on the pH glass electrode) in D2O. […] All the NMR experiments were performed on a Bruker Avance 800.23 MHz at 278 K. Binding epitope mappings were obtained by determining the initial slopes (STD0) calculated by performing a least-squares fitting of the following monoexponential curve: [drawing 1] where STD(tsat) is the STD intensity for a saturation time, tsat, STDmax is the maximum STD intensity and ksat is the rate constant for saturation transfer. […]",
  "data": [
    {"smiles": "OCc1c[nH]c2ccccc12", "note": "[Compound I3C, Indole-3-carbinol, reference compound]", "values": [
      {"measurement": "STD intensities, WWP1-I3C complex", "result": "~30", "unit": "%"}
    ]}
  ]
}
